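Tested at 5 concentrations; 48 h exposure; 96-well plates; endpoints linearly interpolated, else capped at highest concentration. TGI marks complete inhibition of growth.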
Legend:
Assay in all cases: NCI-60 cell line screen, 48 h
HT29 colon = test system: HT29 colon
NCI-H522 lung = test system: NCI-H522 lung
OVCAR-8 ovarian = test system: OVCAR-8 ovarian
HCC-2998 colon = test system: HCC-2998 colon
TK-10 renal = test system: TK-10 renal
K-562 leukemia = test system: K-562 leukemia
HL-60(TB) leukemia = test system: HL-60(TB) leukemia
SK-MEL-2 melanoma = test system: SK-MEL-2 melanoma
RPMI-8226 leukemia = test system: RPMI-8226 leukemia
UACC-62 melanoma = test system: UACC-62 melanoma
ACHN renal = test system: ACHN renal
NCI-H460 lung = test system: NCI-H460 lung
RXF 393 renal = test system: RXF 393 renal
SF-539 CNS = test system: SF-539 CNS
M14 melanoma = test system: M14 melanoma
DMS 114 small cell lung = test system: DMS 114 small cell lung
M19-MEL melanoma = test system: M19-MEL melanoma
A498 renal = test system: A498 renal
MALME-3M melanoma = test system: MALME-3M melanoma
NCI-H23 lung = test system: NCI-H23 lung
MOLT-4 leukemia = test system: MOLT-4 leukemia
LOX IMVI melanoma = test system: LOX IMVI melanoma
SK-MEL-28 melanoma = test system: SK-MEL-28 melanoma
CAKI-1 renal = test system: CAKI-1 renal
SF-268 CNS = test system: SF-268 CNS
SNB-75 CNS = test system: SNB-75 CNS
NCI-H226 lung = test system: NCI-H226 lung
A549 NSCLC = test system: A549 NSCLC
COLO 205 colon = test system: COLO 205 colon
IGROV1 ovarian = test system: IGROV1 ovarian
HOP-18 NSCLC = test system: HOP-18 NSCLC
HOP-62 NSCLC = test system: HOP-62 NSCLC
EKVX NSCLC = test system: EKVX NSCLC
OVCAR-4 ovarian = test system: OVCAR-4 ovarian
SF-295 CNS = test system: SF-295 CNS
HCT-15 colon = test system: HCT-15 colon
CCRF-CEM leukemia = test system: CCRF-CEM leukemia
SK-OV-3 ovarian = test system: SK-OV-3 ovarian
SN12C renal = test system: SN12C renal
DLD-1 colon = test system: DLD-1 colon
LXFL 529 NSCLC = test system: LXFL 529 NSCLC
DMS 273 small cell lung = test system: DMS 273 small cell lung
UO-31 renal = test system: UO-31 renal
RXF-631 renal = test system: RXF-631 renal
OVCAR-5 ovarian = test system: OVCAR-5 ovarian
XF 498 CNS = test system: XF 498 CNS
UACC-257 melanoma = test system: UACC-257 melanoma
KM12 colon = test system: KM12 colon
OVCAR-3 ovarian = test system: OVCAR-3 ovarian
KM20L2 colon = test system: KM20L2 colon
SNB-78 CNS = test system: SNB-78 CNS
786-0 renal = test system: 786-0 renal
HCT-116 colon = test system: HCT-116 colon
SW-620 colon = test system: SW-620 colon
SK-MEL-5 melanoma = test system: SK-MEL-5 melanoma
U251 CNS = test system: U251 CNS
SNB-19 CNS = test system: SNB-19 CNS
SR leukemia = test system: SR leukemia
HOP-92 NSCLC = test system: HOP-92 NSCLC

**Q.** For `Cc1c(NC(=O)/C(=N/NC(=S)N=N)C2C(=O)CC(C)(C)CC2=O)c(O)c2ccccc2c1O`, which TGI (HT29 colon) is on record?
**A.** The TGI was 33.6 µM.

**Q.** What about the TGI (NCI-H522 lung) of the same molecule?
**A.** Its TGI is 8.39 µM.

**Q.** And the TGI (OVCAR-8 ovarian)?
**A.** Its TGI is 17.6 µM.

**Q.** And the TGI (HCC-2998 colon)?
**A.** Its TGI is 23.3 µM.

**Q.** What about the TGI (TK-10 renal) of the same molecule?
**A.** Its TGI is 35.6 µM.

**Q.** What about the TGI (K-562 leukemia) of the same molecule?
**A.** The TGI was 62.8 µM.

**Q.** And the TGI (HL-60(TB) leukemia)?
**A.** The TGI was 22.7 µM.

**Q.** And the TGI (SK-MEL-2 melanoma)?
**A.** The TGI was 26.1 µM.

**Q.** What about the TGI (RPMI-8226 leukemia) of the same molecule?
**A.** Its TGI is 56.7 µM.

**Q.** What about the TGI (UACC-62 melanoma) of the same molecule?
**A.** The TGI was 6 µM.

**Q.** And the TGI (ACHN renal)?
**A.** Its TGI is 26.8 µM.

**Q.** What about the TGI (NCI-H460 lung) of the same molecule?
**A.** Its TGI is 64.9 µM.

**Q.** What about the TGI (RXF 393 renal) of the same molecule?
**A.** Its TGI is 33.2 µM.

**Q.** What about the TGI (SF-539 CNS) of the same molecule?
**A.** Its TGI is 12.4 µM.

**Q.** And the TGI (M14 melanoma)?
**A.** The TGI was 18.5 µM.

**Q.** What about the TGI (DMS 114 small cell lung) of the same molecule?
**A.** Its TGI is 4.17 µM.

**Q.** What about the TGI (M19-MEL melanoma) of the same molecule?
**A.** Its TGI is 2.95 µM.

**Q.** What about the TGI (A498 renal) of the same molecule?
**A.** Its TGI is 35.7 µM.

**Q.** And the TGI (MALME-3M melanoma)?
**A.** The TGI was 29.6 µM.

**Q.** And the TGI (NCI-H23 lung)?
**A.** The TGI was 11.9 µM.

**Q.** What about the TGI (MOLT-4 leukemia) of the same molecule?
**A.** The TGI was 15.7 µM.

**Q.** And the TGI (LOX IMVI melanoma)?
**A.** Its TGI is 12 µM.

**Q.** What about the TGI (SK-MEL-28 melanoma) of the same molecule?
**A.** Its TGI is 26.4 µM.

**Q.** What about the TGI (CAKI-1 renal) of the same molecule?
**A.** The TGI was 37.6 µM.

**Q.** And the TGI (SF-268 CNS)?
**A.** The TGI was 21.7 µM.

**Q.** What about the TGI (SNB-75 CNS) of the same molecule?
**A.** The TGI was 45.6 µM.

**Q.** What about the TGI (NCI-H226 lung) of the same molecule?
**A.** Its TGI is 27.7 µM.

**Q.** And the TGI (A549 NSCLC)?
**A.** Its TGI is 21.7 µM.

**Q.** And the TGI (COLO 205 colon)?
**A.** The TGI was 25.5 µM.

**Q.** What about the TGI (IGROV1 ovarian) of the same molecule?
**A.** Its TGI is 19.8 µM.

**Q.** And the TGI (HOP-18 NSCLC)?
**A.** Its TGI is 30.4 µM.

**Q.** And the TGI (HOP-62 NSCLC)?
**A.** Its TGI is 36 µM.

**Q.** What about the TGI (EKVX NSCLC) of the same molecule?
**A.** Its TGI is 32.2 µM.

**Q.** And the TGI (OVCAR-4 ovarian)?
**A.** The TGI was 27 µM.

**Q.** What about the TGI (SF-295 CNS) of the same molecule?
**A.** The TGI was 27.6 µM.

**Q.** And the TGI (HCT-15 colon)?
**A.** Its TGI is 18.8 µM.

**Q.** What about the TGI (CCRF-CEM leukemia) of the same molecule?
**A.** Its TGI is 21.1 µM.

**Q.** What about the TGI (SK-OV-3 ovarian) of the same molecule?
**A.** Its TGI is 36.9 µM.

**Q.** What about the TGI (SN12C renal) of the same molecule?
**A.** The TGI was 20.1 µM.

**Q.** What about the TGI (DLD-1 colon) of the same molecule?
**A.** Its TGI is 20.7 µM.

**Q.** And the TGI (LXFL 529 NSCLC)?
**A.** Its TGI is 23.7 µM.

**Q.** And the TGI (DMS 273 small cell lung)?
**A.** Its TGI is 22.4 µM.

**Q.** And the TGI (UO-31 renal)?
**A.** Its TGI is 25.4 µM.

**Q.** What about the TGI (RXF-631 renal) of the same molecule?
**A.** The TGI was 31.7 µM.

**Q.** And the TGI (OVCAR-5 ovarian)?
**A.** Its TGI is 36.9 µM.

**Q.** What about the TGI (XF 498 CNS) of the same molecule?
**A.** The TGI was 28.9 µM.

**Q.** And the TGI (UACC-257 melanoma)?
**A.** The TGI was 14 µM.

**Q.** What about the TGI (KM12 colon) of the same molecule?
**A.** The TGI was 22.1 µM.

**Q.** What about the TGI (OVCAR-3 ovarian) of the same molecule?
**A.** The TGI was 6.5 µM.

**Q.** What about the TGI (KM20L2 colon) of the same molecule?
**A.** The TGI was 40.4 µM.

**Q.** What about the TGI (SNB-78 CNS) of the same molecule?
**A.** The TGI was 58.8 µM.

**Q.** And the TGI (786-0 renal)?
**A.** The TGI was 27.2 µM.

**Q.** What about the TGI (HCT-116 colon) of the same molecule?
**A.** The TGI was 13.7 µM.

**Q.** And the TGI (SW-620 colon)?
**A.** The TGI was 22.3 µM.

**Q.** And the TGI (SK-MEL-5 melanoma)?
**A.** The TGI was 11.3 µM.

**Q.** And the TGI (U251 CNS)?
**A.** Its TGI is 14 µM.

**Q.** And the TGI (SNB-19 CNS)?
**A.** Its TGI is 26.5 µM.

**Q.** What about the TGI (SR leukemia) of the same molecule?
**A.** Its TGI is 14.9 µM.

**Q.** What does the source list for `COC(=O)CCC1=NOC(CC2CC(CCC(=O)OC)=NO2)C1` (centres undefined)?
**A.** TGI (HT29 colon): > 100 µM; TGI (NCI-H522 lung): > 100 µM; TGI (OVCAR-8 ovarian): > 100 µM; TGI (HCC-2998 colon): > 100 µM; TGI (HOP-92 NSCLC): > 100 µM; TGI (TK-10 renal): > 100 µM; TGI (K-562 leukemia): > 100 µM; TGI (HL-60(TB) leukemia): > 100 µM; TGI (SK-MEL-2 melanoma): > 100 µM; TGI (RPMI-8226 leukemia): > 100 µM; TGI (UACC-62 melanoma): > 100 µM; TGI (NCI-H460 lung): > 100 µM; TGI (RXF 393 renal): > 100 µM; TGI (SF-539 CNS): > 100 µM; TGI (M14 melanoma): > 100 µM; TGI (DMS 114 small cell lung): > 100 µM; TGI (M19-MEL melanoma): > 100 µM; TGI (A498 renal): > 100 µM; TGI (MALME-3M melanoma): > 100 µM; TGI (NCI-H23 lung): > 100 µM; TGI (MOLT-4 leukemia): > 100 µM; TGI (LOX IMVI melanoma): > 100 µM; TGI (CAKI-1 renal): > 100 µM; TGI (SF-268 CNS): > 100 µM; TGI (SNB-75 CNS): > 100 µM; TGI (NCI-H226 lung): > 100 µM; TGI (A549 NSCLC): > 100 µM; TGI (COLO 205 colon): > 100 µM; TGI (IGROV1 ovarian): > 100 µM; TGI (HOP-18 NSCLC): > 100 µM; TGI (HOP-62 NSCLC): > 100 µM; TGI (EKVX NSCLC): > 100 µM; TGI (OVCAR-4 ovarian): > 100 µM; TGI (SF-295 CNS): > 100 µM; TGI (HCT-15 colon): > 100 µM; TGI (CCRF-CEM leukemia): > 100 µM; TGI (SK-OV-3 ovarian): > 100 µM; TGI (SN12C renal): > 100 µM; TGI (DLD-1 colon): > 100 µM; TGI (LXFL 529 NSCLC): > 100 µM; TGI (DMS 273 small cell lung): > 100 µM; TGI (UO-31 renal): > 100 µM; TGI (RXF-631 renal): > 100 µM; TGI (OVCAR-5 ovarian): > 100 µM; TGI (XF 498 CNS): > 100 µM; TGI (UACC-257 melanoma): > 100 µM; TGI (KM12 colon): > 100 µM; TGI (OVCAR-3 ovarian): > 100 µM; TGI (KM20L2 colon): > 100 µM; TGI (SNB-78 CNS): > 100 µM; TGI (786-0 renal): > 100 µM; TGI (HCT-116 colon): > 100 µM; TGI (SW-620 colon): > 100 µM; TGI (SK-MEL-5 melanoma): > 100 µM; TGI (U251 CNS): > 100 µM; TGI (SNB-19 CNS): > 100 µM
